Assay results reported in US20040077636A1, “Restricting reinstatement of drug use” (priority 2000, published 2004).
Entries after “also recorded” stand apart in the source; their conditions may differ.

Tests used:
heroin-addicted rats = conditions: Euro. J. Neurosci. 12, 292-302, 2000; cited from earlier work
[1] = pre-treatment; literature reports; cited from earlier work
[2] = Footshock stress-induced reinstatement of cocaine seeking; assay type: in vivo; conditions: 0.150 mg/kg or 0.2 mg/kg
[3] = in vivo; cited from earlier work
Male Wistar rats [4] = test: Extinction of alcohol self-administration behaviour; assay type: in vivo; conditions: for responding on the active lever, second day of extinction: among the three groups
Experimental: (§1) Animals: Male Wistar rats (Charles River, Montreal; weighing about 150-200 g. at the start of the experiments) were individually housed. Food and water were freely available in the home cages for 23 h/day. Food was not available during the 30 to 60 min daily session (see below). The temperature was maintained at 21±1° C. and the lights were on from 7 a.m. to 7 p.m. Rats were initially trained to consume alcohol in a limited access procedure (Linseman, 1987). The rats were given access to an alcohol solution and water in modified Richter tubes for 30 min/day in drinking cages. Alcohol solutions were provided in escalating concentrations: 3% w/v for the first 5 days 6% for the next 8 days and 12% for the last 10-12 days. Rats that consumed less than 0.4 g/kg per session during the last 10-12 days were excluded. All procedures were done in accordance with the guidelines of the Canadian Council on Animals Care and the ‘principle of laboratories animal care’ (NIH publication No. 85-23, revised 1985), and were approved by the local Animal Care Committee.
Apparatus: The alcohol self-administration system was built locally. Each operant chamber was equipped with two levers, symmetrically centered on the side panel. Responding on one lever (the active lever) activated the infusion pump (Razel Sci. Stamford, Conn., USA). […] During the infusion, a stimulus light above the active lever was turned on for 6 s. […] The grid floor of the operant cambers was connected to electric shock generators (Med Associates, Georgia, Vt., USA).
Training and extinction of alcohol self-administration: Operant self-administration of alcohol was initiated on a fixed ration-1 schedule of reinforcement (FR-1, each lever press is reinforced) for 60 min per day for 5-7 days per week. Responding on the FR-1 schedule was maintained for 10-14 sessions. The requirement for alcohol delivery was then increased to FR-2 for five sessions. Subsequently, the schedule requirement was increased to an FR-3 schedule for 8-12 days until the rats obtained three days of stable drug taking (variability of less than 20% of the mean). […]

NE release = conditions: doses employed in the present study; cited from earlier work
[5] = tested on: imidazoline-type 1 receptors; conditions: cited from earlier work
Male Wistar rats [6] = test: Operant alcohol self-administration; assay type: in vivo; conditions: average of two consecutive sessions, vs saline
Experimental: as §1, with “Committee. […]” for “Committee.”
Analysis of variance with or without repeated measures were employed to analyse the data. […] In the first experiment, the average amounts of alcohol self-administered over a period of two days were used to quantify the effects of lofexidine treatment on alcohol self-administration. […]

[7] = humans; cited from earlier work
Male Wistar rats [8] = test: Footshock stress-induced reinstatement of alcohol seeking; assay type: in vivo; conditions: for reinstatement of alcohol seeking (responses on the active lever after footshock): vs saline, p<0.05
Experimental: Animals: Male Wistar rats (Charles River, Montreal; weighing about 150-200 g. at the start of the experiments) were individually housed. Food and water were freely available in the home cages for 23 h/day. Food was not available during the 30 to 60 min daily session (see below). The temperature was maintained at 21±1° C. and the lights were on from 7 a.m. to 7 p.m. Rats were initially trained to consume alcohol in a limited access procedure ([…], 1987). The rats were given access to an alcohol solution and water in modified Richter tubes for 30 min/day in drinking cages. Alcohol solutions were provided in escalating concentrations: 3% w/v for the first 5 days 6% for the next 8 days and 12% for the last 10-12 days. Rats that consumed less than 0.4 g/kg per session during the last 10-12 days were excluded. All procedures were done in accordance with the guidelines of the Canadian Council on Animals Care and the 'principle of laboratories animal care' (NIH publication No. 85-23, revised 1985), and were approved by the local Animal Care Committee. Apparatus: The alcohol self-administration system was built locally. Each operant chamber was equipped with two levers, symmetrically centered on the side panel. Responding on one lever (the active lever) activated the infusion pump (Razel Sci. Stamford, Conn., USA). […] During the infusion, a stimulus light above the active lever was turned on for 6 s. […] The grid floor of the operant cambers was connected to electric shock generators (Med Associates, Georgia, Vt., USA). Training and extinction of alcohol self-administration: Operant self-administration of alcohol was initiated on a fixed ration-1 schedule of reinforcement (FR-1, each lever press is reinforced) for 60 min per day for 5-7 days per week. Responding on the FR-1 schedule was maintained for 10-14 sessions. The requirement for alcohol delivery was then increased to FR-2 for five sessions. Subsequently, the schedule requirement was increased to an FR-3 schedule for 8-12 days until the rats obtained three days of stable drug taking (variability of less than 20% of the mean). During extinction sessions, presses on the previously active lever had no programmable consequences. […] Test for Reinstatement: Tests were conducted under extinction conditions. Intermittent footshock (0.8 mA; 0.5 s ON; a mean OFF period of 40 s; a range of 10-70 s) was administered for a period of 10 min just prior to the test sessions. Footshock was delivered through a scrambler to the stainless steel grid floor of the operant chambers. […] When the animals achieved extinction criterion, the effect of pre-treatment with lofexidine on footshock stress-induced reinstatement of alcohol seeking was determined as described above. […]

## Clc1cccc(Cl)c1N=C1NCCN1 [clonidine]
heroin-addicted rats
  foot-shock-induced reinstatement of heroin-seeking: effective
[1]
  alcohol consumption: reduction in alcohol consumption

## N=C(N)NC(=O)Cc1c(Cl)cccc1Cl [guanfacine]
[1]
  alcohol consumption: reduction in alcohol consumption

## CC(Oc1c(Cl)cccc1Cl)C1=NCCN1 (stereo not drawn) [lofexidine, Lofexidine]
[2]
  footshock stress-induced reinstatement of cocaine seeking: attenuation; also recorded: suppressed
[3]
  hypotensive effect: minimal hypotensive effect
Male Wistar rats [4]; 0.05 mg/kg IP daily
  responding on the active lever, second day of extinction: no significant differences
Male Wistar rats [4]; 0.1 mg/kg IP daily 1 h before session, vs saline and lower dose group
  responding on the active lever, first day of extinction: significantly lower; also recorded: significant decrease
Male Wistar rats [4]; 0.1 mg/kg IP daily
  responding on the active lever, second day of extinction: no significant differences
NE release
  stress induced NE release in the pre-frontal cortex and amygdala: block
[5]
  affinity for imidazoline-type 1 (I2) receptors: high affinity
Male Wistar rats [6]; 0.05 mg/kg IP 1 h before session
  alcohol self-administration (amount of alcohol self-administered during 1-hour session): no significant differences; also recorded: did not reach statistical significance
Male Wistar rats [6]; 0.1 mg/kg IP 1 h before session, p<0.05
  alcohol self-administration (amount of alcohol self-administered during 1-hour session): significantly lower; also recorded: significantly suppresses
[7]
  adverse side effects compared with clonidine, in particular hypotensive effects: fewer adverse side effects
Male Wistar rats [8]; 0.05 mg/kg IP 1 h before 10 min intermittent footshock
  reinstatement of alcohol seeking (responses on the active lever after footshock): significantly suppressed
Male Wistar rats [8]; 0.1 mg/kg IP 1 h before 10 min intermittent footshock
  reinstatement of alcohol seeking (responses on the active lever after footshock): significantly suppressed
Male Wistar rats [8]; 0.2 mg/kg IP 1 h before 10 min intermittent footshock
  reinstatement of alcohol seeking (responses on the active lever after footshock): significantly suppressed
Male Wistar rats [8]; doses ranging from 0.05 to 0.2 mg/kg, intermittent footshock stress
  reinstatement of alcohol seeking: completely suppressed

## Cc1csc(Cl)c1NC1=NCCN1 [tiamedine]
[1]
  alcohol consumption: reduction in alcohol consumption
